We go through 1 compound from patent publication US8222270B2 (Medicis Pharmaceutical Corporation, priority 2008, dated 2012).

Data set [1] has as its system human monocytes/macrophages and keratinocytes. The data set can be described thus: In vitro cytokine induction. The format is cell-based. From the text:
The panel of cytokines induced varied with the cell's tissue origin.

Data set [2] can be described thus: Skin, eye and vaginal irritation studies. The format is in vivo, rabbits. From the text: The more severe dermal irritation seen in the rat is not predictive of human response.
Data set [3] in a line: Repeat dose oral toxicity, 6 months. Type of data set: in vivo, monkeys. Conditions: dosed daily for 6 months. Here is the method: The adverse effects observed for the high doses (10-30 mg/kg) in repeat dose oral toxicity studies in rats and monkeys could be related to exaggerated pharmacological effects of excessive cytokines induction and lymphoid stimulation: reduced body weight gains, anaemia, serum protein changes and death. […] An oral no-adverse-effect level of 3 mg/kg/day was determined in both rats and monkeys dosed daily for 6 months.

As to `CC(C)Cn1cnc2c(N)nc3ccccc3c21` [imiquimod, 1-(2-methylpropyl)-1H-imidazo[4,5-c]quinolin-4-amine], the “Release of interferon alpha (IFN-α) and other cytokines” value in data set [1] is on record as “induces the release”. The Vaginal tract irritation entry in data set [2] (rat or rabbit, every other day for 10 days at 10 and 50 mg/dose) was “not irritating”. Besides, the Eye irritation entry in data set [2] (unformulated at 100 mg/eye or formulated up to 5 mg/eye) was “mild or no eye irritation”. Also, the Skin irritation entry in data set [2] (unformulated at 500 mg or formulated up to 250 mg per site) is “non-irritating”. The compound further displayed an Oral no-adverse-effect level in data set [3] of 3 mg/kg/day.
